Measurements taken from ChEMBL document CHEMBL3991601, “The target landscape of clinical kinase drugs” (Science, 2017).
Calls of active or inactive are those of the source.

Legend:
[1] = target: Proto-oncogene tyrosine-protein kinase receptor Ret (Homo sapiens, UniProt P07949)
[2] = target: Phosphatidylethanolamine-binding protein 1 (Homo sapiens, UniProt P30086)
Ephrin type-A receptor 1 = target: T1, Ephrin type-A receptor 1 (Homo sapiens, UniProt P21709)
T1 sequence (P21709 whole entry): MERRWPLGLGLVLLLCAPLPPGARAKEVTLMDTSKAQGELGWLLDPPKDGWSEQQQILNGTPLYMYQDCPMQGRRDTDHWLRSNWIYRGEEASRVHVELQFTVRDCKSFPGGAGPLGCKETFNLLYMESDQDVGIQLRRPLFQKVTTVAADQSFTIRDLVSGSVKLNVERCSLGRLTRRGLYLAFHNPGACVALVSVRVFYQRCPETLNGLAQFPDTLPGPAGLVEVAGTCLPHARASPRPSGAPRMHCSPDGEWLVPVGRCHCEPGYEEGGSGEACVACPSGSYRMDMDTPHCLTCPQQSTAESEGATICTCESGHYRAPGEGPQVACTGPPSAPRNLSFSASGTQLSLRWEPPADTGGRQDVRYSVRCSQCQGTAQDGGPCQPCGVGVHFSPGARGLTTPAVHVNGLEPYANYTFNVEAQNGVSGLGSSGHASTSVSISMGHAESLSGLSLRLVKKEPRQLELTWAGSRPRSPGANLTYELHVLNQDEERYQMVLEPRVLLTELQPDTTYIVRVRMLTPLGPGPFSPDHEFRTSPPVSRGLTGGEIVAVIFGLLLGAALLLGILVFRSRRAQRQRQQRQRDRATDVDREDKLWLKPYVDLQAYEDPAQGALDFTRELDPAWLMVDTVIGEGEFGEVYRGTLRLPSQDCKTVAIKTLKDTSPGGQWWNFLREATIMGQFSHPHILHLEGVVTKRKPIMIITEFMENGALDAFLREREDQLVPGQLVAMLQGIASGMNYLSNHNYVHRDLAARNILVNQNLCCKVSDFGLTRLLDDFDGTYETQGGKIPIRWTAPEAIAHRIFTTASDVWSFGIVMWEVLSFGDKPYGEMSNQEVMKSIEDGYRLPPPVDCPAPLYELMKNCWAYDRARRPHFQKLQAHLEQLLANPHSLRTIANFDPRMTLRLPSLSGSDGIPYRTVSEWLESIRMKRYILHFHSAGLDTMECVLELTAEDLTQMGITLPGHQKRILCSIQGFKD

[3] = target: Dual specificity testis-specific protein kinase 1 (Homo sapiens, UniProt Q15569)
[4] = target: Dual specificity protein kinase CLK2 (Homo sapiens, UniProt P49760)
[5] = target: T2, Receptor-type tyrosine-protein kinase FLT3 (Homo sapiens, UniProt P36888)
T2 sequence (P36888 whole entry): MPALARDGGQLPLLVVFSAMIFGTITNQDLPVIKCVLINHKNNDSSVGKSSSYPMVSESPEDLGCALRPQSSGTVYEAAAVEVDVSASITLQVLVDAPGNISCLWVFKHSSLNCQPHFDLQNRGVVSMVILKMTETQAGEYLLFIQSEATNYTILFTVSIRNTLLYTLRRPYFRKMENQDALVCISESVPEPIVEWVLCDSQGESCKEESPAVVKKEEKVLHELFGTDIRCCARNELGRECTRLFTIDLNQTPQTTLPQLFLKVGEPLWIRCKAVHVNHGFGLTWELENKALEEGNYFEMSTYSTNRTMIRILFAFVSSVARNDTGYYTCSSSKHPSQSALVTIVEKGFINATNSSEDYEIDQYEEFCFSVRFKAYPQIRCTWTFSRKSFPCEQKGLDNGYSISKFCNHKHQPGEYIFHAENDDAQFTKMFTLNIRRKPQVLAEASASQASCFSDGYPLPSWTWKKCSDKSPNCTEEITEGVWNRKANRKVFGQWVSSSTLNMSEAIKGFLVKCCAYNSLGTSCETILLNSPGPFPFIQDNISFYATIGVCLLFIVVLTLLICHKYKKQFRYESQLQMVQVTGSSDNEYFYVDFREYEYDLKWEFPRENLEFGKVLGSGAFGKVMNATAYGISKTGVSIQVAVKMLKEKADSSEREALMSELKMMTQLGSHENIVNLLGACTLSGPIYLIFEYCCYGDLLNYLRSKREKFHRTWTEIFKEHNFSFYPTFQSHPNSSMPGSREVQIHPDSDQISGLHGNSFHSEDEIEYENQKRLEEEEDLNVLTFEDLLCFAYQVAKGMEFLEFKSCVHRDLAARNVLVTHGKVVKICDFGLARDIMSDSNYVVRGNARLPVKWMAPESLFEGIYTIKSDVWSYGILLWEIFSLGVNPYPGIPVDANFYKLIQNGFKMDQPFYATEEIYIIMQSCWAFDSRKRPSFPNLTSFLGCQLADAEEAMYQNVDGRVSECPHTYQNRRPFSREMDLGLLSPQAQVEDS

[6] = target: High affinity nerve growth factor receptor (Homo sapiens, UniProt P04629)
UMP-CMP kinase = target: T3, UMP-CMP kinase (Homo sapiens, UniProt P30085)
T3 sequence (P30085 whole entry): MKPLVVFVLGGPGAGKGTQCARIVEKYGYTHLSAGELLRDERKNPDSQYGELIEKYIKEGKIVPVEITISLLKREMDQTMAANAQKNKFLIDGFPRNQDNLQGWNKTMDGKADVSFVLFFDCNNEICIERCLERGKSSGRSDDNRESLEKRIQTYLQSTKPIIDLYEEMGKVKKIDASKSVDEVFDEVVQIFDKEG

[7] = target: Serine/threonine-protein kinase PAK 6 (Homo sapiens, UniProt Q9NQU5)
[8] = target: Serine/threonine-protein kinase Nek7 (Homo sapiens, UniProt Q8TDX7)
Also: in the data inactive means no Kd found up to 30 µM.

Dual specificity protein kinase CLK2, sequence (P49760 whole entry): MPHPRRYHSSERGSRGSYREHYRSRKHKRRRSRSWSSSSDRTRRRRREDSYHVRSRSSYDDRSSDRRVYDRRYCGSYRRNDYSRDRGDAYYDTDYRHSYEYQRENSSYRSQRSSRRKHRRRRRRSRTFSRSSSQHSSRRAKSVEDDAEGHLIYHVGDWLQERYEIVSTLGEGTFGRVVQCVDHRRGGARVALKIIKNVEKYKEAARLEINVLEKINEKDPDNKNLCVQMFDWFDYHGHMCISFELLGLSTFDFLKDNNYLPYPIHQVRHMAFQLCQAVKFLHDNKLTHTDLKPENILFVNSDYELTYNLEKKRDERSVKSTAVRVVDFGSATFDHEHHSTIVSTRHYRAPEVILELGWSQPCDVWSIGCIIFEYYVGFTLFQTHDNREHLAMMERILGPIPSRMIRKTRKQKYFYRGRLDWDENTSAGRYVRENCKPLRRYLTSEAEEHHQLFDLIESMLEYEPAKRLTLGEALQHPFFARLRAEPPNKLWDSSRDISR
Serine/threonine-protein kinase Nek7, sequence (Q8TDX7 whole entry): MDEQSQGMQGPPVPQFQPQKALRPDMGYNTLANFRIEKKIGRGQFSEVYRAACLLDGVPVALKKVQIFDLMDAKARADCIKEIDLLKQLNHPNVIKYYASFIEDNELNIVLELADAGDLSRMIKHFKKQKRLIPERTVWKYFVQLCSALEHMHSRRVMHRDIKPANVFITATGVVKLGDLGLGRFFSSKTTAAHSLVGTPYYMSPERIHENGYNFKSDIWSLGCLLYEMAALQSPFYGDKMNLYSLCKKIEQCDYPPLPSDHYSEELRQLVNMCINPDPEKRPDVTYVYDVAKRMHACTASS
Proto-oncogene tyrosine-protein kinase receptor Ret, sequence (P07949 whole entry): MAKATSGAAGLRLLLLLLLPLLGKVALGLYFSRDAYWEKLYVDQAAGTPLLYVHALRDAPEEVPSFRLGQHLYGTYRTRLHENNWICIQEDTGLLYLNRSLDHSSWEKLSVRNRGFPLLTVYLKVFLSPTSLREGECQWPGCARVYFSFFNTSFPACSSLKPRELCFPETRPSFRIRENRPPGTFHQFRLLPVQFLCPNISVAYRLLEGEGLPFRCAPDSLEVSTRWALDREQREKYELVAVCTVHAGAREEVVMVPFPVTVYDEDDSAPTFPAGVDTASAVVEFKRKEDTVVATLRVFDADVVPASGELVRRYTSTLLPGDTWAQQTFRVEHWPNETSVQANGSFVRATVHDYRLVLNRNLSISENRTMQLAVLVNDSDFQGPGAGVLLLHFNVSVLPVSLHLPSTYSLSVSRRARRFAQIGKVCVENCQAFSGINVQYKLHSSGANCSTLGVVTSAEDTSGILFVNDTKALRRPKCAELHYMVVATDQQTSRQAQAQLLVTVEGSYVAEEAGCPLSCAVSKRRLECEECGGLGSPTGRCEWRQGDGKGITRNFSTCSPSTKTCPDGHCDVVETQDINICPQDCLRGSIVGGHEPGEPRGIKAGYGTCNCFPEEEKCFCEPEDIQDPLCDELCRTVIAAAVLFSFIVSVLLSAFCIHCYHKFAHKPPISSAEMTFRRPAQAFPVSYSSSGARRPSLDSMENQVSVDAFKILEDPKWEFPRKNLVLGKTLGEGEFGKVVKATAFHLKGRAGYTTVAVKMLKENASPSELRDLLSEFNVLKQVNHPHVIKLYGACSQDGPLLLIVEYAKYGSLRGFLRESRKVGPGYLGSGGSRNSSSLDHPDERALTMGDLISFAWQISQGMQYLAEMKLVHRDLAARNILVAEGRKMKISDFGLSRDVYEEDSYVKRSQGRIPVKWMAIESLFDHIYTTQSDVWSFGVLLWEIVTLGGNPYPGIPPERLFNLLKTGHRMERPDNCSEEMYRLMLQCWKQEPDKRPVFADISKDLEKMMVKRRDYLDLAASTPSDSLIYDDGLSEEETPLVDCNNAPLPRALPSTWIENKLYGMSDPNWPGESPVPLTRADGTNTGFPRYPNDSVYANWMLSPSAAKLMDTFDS
Dual specificity testis-specific protein kinase 1, sequence (Q15569 whole entry): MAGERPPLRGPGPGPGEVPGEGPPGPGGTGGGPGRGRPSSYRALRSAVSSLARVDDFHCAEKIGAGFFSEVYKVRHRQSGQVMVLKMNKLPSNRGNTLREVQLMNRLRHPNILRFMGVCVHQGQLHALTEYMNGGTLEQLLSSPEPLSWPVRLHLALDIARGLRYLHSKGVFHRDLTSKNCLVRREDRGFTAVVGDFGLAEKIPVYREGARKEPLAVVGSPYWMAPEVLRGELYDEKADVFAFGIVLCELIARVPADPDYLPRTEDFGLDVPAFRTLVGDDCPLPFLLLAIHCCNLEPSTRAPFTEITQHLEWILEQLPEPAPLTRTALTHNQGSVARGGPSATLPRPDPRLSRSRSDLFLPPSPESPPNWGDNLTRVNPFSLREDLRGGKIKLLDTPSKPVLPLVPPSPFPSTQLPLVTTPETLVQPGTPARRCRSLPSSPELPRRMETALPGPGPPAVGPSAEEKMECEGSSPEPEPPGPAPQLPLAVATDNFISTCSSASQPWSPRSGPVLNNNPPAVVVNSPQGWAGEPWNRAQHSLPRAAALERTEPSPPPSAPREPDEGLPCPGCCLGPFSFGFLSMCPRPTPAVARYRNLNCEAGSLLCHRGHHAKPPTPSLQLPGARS
High affinity nerve growth factor receptor, sequence (P04629 whole entry): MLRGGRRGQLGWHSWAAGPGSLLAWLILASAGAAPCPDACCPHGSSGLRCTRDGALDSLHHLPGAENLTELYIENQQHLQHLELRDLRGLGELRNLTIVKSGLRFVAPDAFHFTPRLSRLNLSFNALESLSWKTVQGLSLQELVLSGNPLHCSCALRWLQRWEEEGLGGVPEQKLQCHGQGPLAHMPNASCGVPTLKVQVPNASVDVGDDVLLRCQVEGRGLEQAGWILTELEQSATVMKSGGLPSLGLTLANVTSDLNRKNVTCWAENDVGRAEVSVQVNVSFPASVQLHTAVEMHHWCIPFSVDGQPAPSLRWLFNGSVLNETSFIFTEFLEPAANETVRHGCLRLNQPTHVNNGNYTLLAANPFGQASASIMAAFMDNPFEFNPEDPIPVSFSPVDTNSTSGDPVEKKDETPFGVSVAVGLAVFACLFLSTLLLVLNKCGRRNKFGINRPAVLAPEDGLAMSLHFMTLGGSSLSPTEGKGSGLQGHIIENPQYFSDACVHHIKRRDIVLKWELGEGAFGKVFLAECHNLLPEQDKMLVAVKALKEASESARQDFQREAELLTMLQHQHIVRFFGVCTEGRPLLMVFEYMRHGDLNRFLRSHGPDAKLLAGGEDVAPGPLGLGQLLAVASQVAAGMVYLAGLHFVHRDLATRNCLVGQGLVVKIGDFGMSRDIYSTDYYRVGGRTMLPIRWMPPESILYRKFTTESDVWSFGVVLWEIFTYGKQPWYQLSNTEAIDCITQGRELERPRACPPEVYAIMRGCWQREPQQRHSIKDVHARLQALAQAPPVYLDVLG
Phosphatidylethanolamine-binding protein 1, sequence (P30086 whole entry): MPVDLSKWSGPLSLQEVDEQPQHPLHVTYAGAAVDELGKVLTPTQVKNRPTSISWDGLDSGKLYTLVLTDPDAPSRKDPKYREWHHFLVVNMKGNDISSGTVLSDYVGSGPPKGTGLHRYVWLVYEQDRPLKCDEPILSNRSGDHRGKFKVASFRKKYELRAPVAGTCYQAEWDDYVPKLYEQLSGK
Serine/threonine-protein kinase PAK 6, sequence (Q9NQU5 whole entry): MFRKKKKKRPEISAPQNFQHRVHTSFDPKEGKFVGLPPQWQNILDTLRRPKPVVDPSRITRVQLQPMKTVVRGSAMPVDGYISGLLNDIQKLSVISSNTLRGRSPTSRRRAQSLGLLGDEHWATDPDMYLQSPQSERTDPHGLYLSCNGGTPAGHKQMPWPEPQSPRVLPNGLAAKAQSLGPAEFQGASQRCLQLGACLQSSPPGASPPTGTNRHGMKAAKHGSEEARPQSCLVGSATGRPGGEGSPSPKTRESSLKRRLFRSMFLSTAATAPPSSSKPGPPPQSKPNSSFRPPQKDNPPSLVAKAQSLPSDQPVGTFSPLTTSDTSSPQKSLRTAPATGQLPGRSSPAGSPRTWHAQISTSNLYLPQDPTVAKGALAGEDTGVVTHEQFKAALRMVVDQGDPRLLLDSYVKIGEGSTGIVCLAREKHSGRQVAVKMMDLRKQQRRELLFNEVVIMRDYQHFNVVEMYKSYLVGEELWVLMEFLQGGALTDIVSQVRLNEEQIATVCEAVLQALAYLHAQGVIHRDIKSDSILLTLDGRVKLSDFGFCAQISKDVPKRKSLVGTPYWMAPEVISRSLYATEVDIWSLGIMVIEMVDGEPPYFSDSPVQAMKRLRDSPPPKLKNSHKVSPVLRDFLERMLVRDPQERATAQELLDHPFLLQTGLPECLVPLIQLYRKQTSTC

Row | SMILES | Kd [1] | Kd [2] | Kd (Ephrin type-A receptor 1) | Kd [3] | Kd [4] | Kd [5] | Kd [6] | Kd (UMP-CMP kinase) | Kd [7] | Kd [8]
1 | COc1cccc(Nc2ncnn3ccc(CN4CC[C@@H](N)[C@H](O)C4)c23)c1 [BMS-690514] | 0.034 µM (active) | > 30 µM (inactive) | > 30 µM (inactive) | > 30 µM (inactive) | – | – | – | – | – | –
2 | COc1cc2ncnc3c2cc1OCCCCCN(C)Cc1ccc(Br)cc1N3 [JNJ-26483327] | 2.42 µM (active) | > 30 µM (inactive) | > 30 µM (inactive) | > 30 µM (inactive) | > 30 µM (inactive) | > 30 µM (inactive) | > 30 µM (inactive) | – | – | –
3 | CN(c1ncccc1CNc1nc(Nc2ccc3c(c2)CC(=O)N3)ncc1C(F)(F)F)S(C)(=O)=O [PF-00562271] | – | > 30 µM (inactive) | > 30 µM (inactive) | > 30 µM (inactive) | – | – | – | > 30 µM (inactive) | > 30 µM (inactive) | –
4 | C=CCn1c(=O)c2cnc(Nc3ccc(N4CCN(C)CC4)cc3)nc2n1-c1cccc(C(C)(C)O)n1 [ADAVOSERTIB] | – | > 30 µM (inactive) | > 30 µM (inactive) | > 30 µM (inactive) | – | – | – | > 30 µM (inactive) | > 30 µM (inactive) | –
5 | CNC(=O)c1cc(COc2nnc(Nc3ccc(Cl)cc3)c3ccoc23)ccn1 [TELATINIB] | > 30 µM (inactive) | > 30 µM (inactive) | > 30 µM (inactive) | > 30 µM (inactive) | > 30 µM (inactive) | > 30 µM (inactive) | > 30 µM (inactive) | – | > 30 µM (inactive) | –
6 | CC[C@@](C)(Nc1ccnc(-c2c[nH]c3ncccc23)n1)C(=O)NCC(F)(F)F [DECERNOTINIB] | > 30 µM (inactive) | – | > 30 µM (inactive) | > 30 µM (inactive) | – | > 30 µM (inactive) | > 30 µM (inactive) | – | – | –
7 | Cc1cc(-c2cc(OC(=O)c3ccccc3)ccc2Cl)cc2nnc(Nc3ccc(OCCN4CCCC4)cc3)nc12 [TG100-801] | 1.03 µM (active) | – | – | > 30 µM (inactive) | > 30 µM (inactive) | > 30 µM (inactive) | > 30 µM (inactive) | – | – | > 30 µM (inactive)
8 | N#CCNC(=O)c1ccc(-c2ccnc(Nc3ccc(N4CCOCC4)cc3)n2)cc1 [MOMELOTINIB] | – | > 30 µM (inactive) | – | – | > 30 µM (inactive) | – | > 30 µM (inactive) | > 30 µM (inactive) | – | > 30 µM (inactive)
9 | CC(C)(O)CC(=O)NCCn1ccc2ncnc(Nc3ccc(Oc4cccc(C(F)(F)F)c4)c(Cl)c3)c21 [TAK-285] | > 30 µM (inactive) | > 30 µM (inactive) | > 30 µM (inactive) | > 30 µM (inactive) | – | > 30 µM (inactive) | > 30 µM (inactive) | – | – | > 30 µM (inactive)
10 | Cc1cc(C(=O)Nc2cc(Oc3ccc4nc(NC(=O)C5CC5)cn4n3)ccc2C)n(C)n1 [TAK-593] | – | – | > 30 µM (inactive) | > 30 µM (inactive) | > 30 µM (inactive) | > 30 µM (inactive) | > 30 µM (inactive) | – | – | –
11 | Cc1c(NC(=O)OC[C@@H]2COCCN2)cn2ncnc(Nc3ccc4c(cnn4Cc4cccc(F)c4)c3)c12 [AC-480] | > 30 µM (inactive) | > 30 µM (inactive) | > 30 µM (inactive) | > 30 µM (inactive) | – | > 30 µM (inactive) | > 30 µM (inactive) | – | > 30 µM (inactive) | –
12 | COCCN1CCN(Cc2ccc(-c3n[nH]c4c3C(=O)c3c(NC(=O)NN5CCOCC5)cccc3-4)cc2)CC1 [RGB-286638] | > 30 µM (inactive) | > 30 µM (inactive) | > 30 µM (inactive) | > 30 µM (inactive) | 0.018 µM (active) | 0.323 µM (active) | > 30 µM (inactive) | > 30 µM (inactive) | > 30 µM (inactive) | –
13 | CNC(=O)c1ccc(Nc2ncc(C(F)(F)F)c(NCc3nccnc3N(C)S(C)(=O)=O)n2)cc1 [DEFACTINIB] | 27.5 µM (active) | – | > 30 µM (inactive) | > 30 µM (inactive) | > 30 µM (inactive) | 0.34 µM (active) | – | – | > 30 µM (inactive) | –
14 | C=CC(=O)Nc1cccc(Nc2nc(Nc3ccc(N4CCN(C(C)=O)CC4)cc3OC)ncc2C(F)(F)F)c1 [ROCILETINIB] | > 30 µM (inactive) | > 30 µM (inactive) | – | > 30 µM (inactive) | > 30 µM (inactive) | > 30 µM (inactive) | > 30 µM (inactive) | – | – | –
15 | CCOc1ccn(-c2ccc(F)cc2)c(=O)c1C(=O)Nc1ccc(Oc2ccnc(N)c2Cl)c(F)c1 [BMS-777607] | – | > 30 µM (inactive) | – | – | – | – | – | – | – | > 30 µM (inactive)
16 | O=C(O)c1ccc2c(c1)nc(Nc1cccc(Cl)c1)c1ccncc12 [SILMITASERTIB] | > 30 µM (inactive) | – | – | > 30 µM (inactive) | – | – | > 30 µM (inactive) | – | – | > 30 µM (inactive)
17 | COc1cc2ncnc(Nc3ccc(F)c(Cl)c3)c2cc1NC(=O)/C=C/CN1CCCCC1 [DACOMITINIB ANHYDROUS] | > 30 µM (inactive) | > 30 µM (inactive) | – | – | > 30 µM (inactive) | > 30 µM (inactive) | > 30 µM (inactive) | > 30 µM (inactive) | – | > 30 µM (inactive)
18 | CCc1nc(C(N)=O)c(Nc2ccc(N3CCC(N4CCN(C)CC4)CC3)c(OC)c2)nc1NC1CCOCC1 [GILTERITINIB] | 0.05 µM (active) | – | > 30 µM (inactive) | > 30 µM (inactive) | – | – | > 30 µM (inactive) | – | – | –
19 | FC(F)(F)c1ccc(CNc2ccc(Cc3c[nH]c4ncc(Cl)cc34)cn2)cn1 [PEXIDARTINIB] | > 30 µM (inactive) | – | > 30 µM (inactive) | > 30 µM (inactive) | > 30 µM (inactive) | – | > 30 µM (inactive) | – | – | –
20 | CCN(CCCOc1ccc2c(Nc3cc(CC(=O)Nc4cccc(F)c4)n[nH]3)ncnc2c1)CCOP(=O)(O)O [BARASERTIB] | – | > 30 µM (inactive) | > 30 µM (inactive) | > 30 µM (inactive) | – | – | – | – | > 30 µM (inactive) | –
21 | C[C@@]1(C(=O)Nc2ccc(F)nc2)CCCN1c1nc(Nc2cc(C3CC3)n[nH]2)c2cccn2n1 [BMS-754807] | – | > 30 µM (inactive) | – | – | – | – | – | – | – | –
22 | CN1CCN(c2nc(C3=C(c4c[nH]c5ccccc45)C(=O)NC3=O)c3ccccc3n2)CC1 [SOTRASTAURIN] | > 30 µM (inactive) | – | > 30 µM (inactive) | > 30 µM (inactive) | 0.121 µM | > 30 µM (inactive) | > 30 µM (inactive) | – | > 30 µM (inactive) | –
23 | O=c1[nH]c([C@@H]2CCCN2)nc2c1oc1ccc(Cl)cc12 | > 30 µM (inactive) | > 30 µM (inactive) | > 30 µM (inactive) | – | – | > 30 µM (inactive) | – | – | – | –
